Results taken from patent publication US9428452B2, “Compounds” (Glaxo Group Limited, priority 2012, dated 2016).
Counter-ions that a name gives are not always drawn.

Tests used:
[1] = tested on: IL-17A secreted from antiCD3/CD28 stimulated Peripheral Blood Mononuclear cells (PBMC); experiment: Peripheral Blood Mononucleocyte Cell Assay (PBMC Assay - IL-17); format: cell-based; conditions: Homo sapiens, 48 h, IL-17A release, read-out: mean pIC50 (converted)
Experimental: Peripheral Blood Mononucleocvte Cell Assay (PBMC Assay—IL-17) […]
This assay is designed to measure levels of IL-17A secreted from antiCD3/CD28 stimulated frozen Peripheral Blood Mononuclear cells (PBMC) isolated from human blood with the aim of identifying inhibitors of IL-17A release.
2. The compounds for screening are dispensed into a master plate at 10 mM top concentration which are serially diluted 1:3 across 11 points in DMSO, then 500 nL is transferred into a 384-well flat-bottomed Greiner plate to which 50 uL of cell suspension is added: for the single shot screening the highest concentration of compound is 10^−5M; for 11 point full curve dose response studies the highest concentration is 10^−4 M.
As a low control, DMSO (as supplied, for example, by VWR) (final concentration 1%) in column 6 (16 points).
As a high control, 5-(4-fluorophenyl)-2-ureidothiophene-3-carboxamide (obtainable from, for example, Sigma) at a final concentration of 10^−4 M in DMSO should be used in column 18 (16 points).
9. Make the cell suspension at the concentration 8×10^5 cells/mL to give a final number of 40,000 cells/well.
1. Add well mixed CD3/CD28 Dynabeads (as supplied, for example, by Dynal) to achieve ratio bead:cell=2:1 (ie. a dilution of 1 in 20). Mix thoroughly.
2. Dispense the suspension into the 384 Assay Plates using Multidrop (50 uL per well). If the volume of cell suspension is large, mix the suspension after dispensing into every other plate.
3. Cover the plates with the lids and place them to the humidified incubator (37° C., 5% CO2) for 48 hours.
1. Transfer 10 uL of supernatants from assay plates to the MSD plates using Cybiwell. Ensure that all wells are covered with the solution. Tap the plate gently, if some of the wells are not covered with the supernatant.
3. Add 10 uL of MSD IL-17 detecting antibody using multidrop (1 ug/mL in D-PBS without Ca^2+ and Mg^2+ (supplied, for example, by Gibco)).
4. Cover the plates with adhesive foil and incubated with shaking for 3 hours at room temperature
7. Add 35 uL of MSD Read Buffer T×2 using multidrop.
8. Read plates on MSD MA6000 reader using the 384 well plate protocol as per manufacturer's instructions.

[2] = molecular target: T1, Human RORγ Ligand Binding Domain (RORγ-LBD) (Homo sapiens, UniProt P51449); experiment: Dual Fluorescence Energy Transfer (FRET) assay: co-activator SRC1(2) peptide interaction with RORγ-LBD; format: biochemical; conditions: RORγ-LBD / SRC1(2) peptide, read-out: mean pIC50 (converted)
T1 construct: His6 with thrombin site) (N); made in house; host or cells: E. coli BL21(DE3), modified pET21a vector
T1 sequence (P51449 263-518): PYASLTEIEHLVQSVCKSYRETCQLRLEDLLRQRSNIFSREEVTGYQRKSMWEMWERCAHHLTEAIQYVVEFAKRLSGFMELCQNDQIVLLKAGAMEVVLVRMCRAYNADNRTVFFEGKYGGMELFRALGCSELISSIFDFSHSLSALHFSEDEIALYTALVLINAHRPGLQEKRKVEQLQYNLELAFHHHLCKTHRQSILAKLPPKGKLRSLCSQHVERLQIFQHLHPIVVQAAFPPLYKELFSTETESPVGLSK
Text: Dual Fluorescence Energy Transfer (FRET) Assay
This assay is based on the knowledge that nuclear receptors interact with cofactors (transcription factors) in a ligand dependent manner. RORγ is a typical nuclear receptor in that it has an AF2 domain in the ligand binding domain (LBD) which interacts with co-activators.
This assay measures ligand-mediated interaction of the co-activator peptide with the purified bacterial-expressed RORγ ligand binding domain (RORγ-LBD) to indirectly assess ligand binding. RORγ has a basal level of interaction with the co-activator SRC1(2) in the absence of ligand, thus, it is possible to find ligands that inhibit or enhance the RORγ/SRC1(2) interaction.
Human RORγ Ligand Binding Domain (RORγ-LBD) was expressed in E. coli strain BL21(DE3) as an amino-terminal polyhistidine tagged fusion protein. DNA encoding this recombinant protein was sub-cloned into a modified pET21a expression vector (Novagen).
Approximately 50 g E. coli cell pellet was resuspended in 300 mL of lysis buffer (30 mM imidazole pH 7.0 and 150 mM NaCl). Cells were lysed by sonication and cell debris was removed by centrifugation for 30 minutes at 20,000 g at 4° C. […] The clarified lysate was loaded onto a column (XK-26) packed with ProBond Nickel Chelating resin (InVitrogen), pre-equilibrated with 30 mM imidazole pH 7.0 and 150 mM NaCl. After washing to baseline absorbance with the equilibration buffer, the column was developed with a gradient from 30 to 500 mM imidazole pH 7.0. Column fractions containing the RORγ-LBD protein were pooled and concentrated to a volume of 5 mLs. The concentrated protein was loaded onto a Superdex 200 column pre-equilibrated with 20 mM Tris-Cl pH 7.2 and 200 mM NaCl. The fractions containing the desired RORγ-LBD protein were pooled together.
Purified RORγ-LBD was buffer exchanged by exhaustive dialysis [3 changes of at least 20 volumes (>8000×)] against PBS [100 mM NaPhosphate, pH 8 and 150 mM NaCl]. […] The modified RORγ-LBD was dialyzed against 2 buffer changes—TBS pH 8.0 containing 5 mM DTT, 2 mM EDTA and 2% sucrose—each at least 20 times of the volume. The modified protein was distributed into aliquots, frozen on dry ice and stored at −80° C. The biotinylated RORγ-LBD was subjected to mass spectrometric analysis to reveal the extent of modification by the biotinylation reagent.
Biotinylated SRC1(2) solution was prepared by adding an appropriate amount of biotinylated SRC1(2) from the 100 uM stock solution to a buffer containing 10 mM of freshly added DTT from solid to give a final concentration of 40 nM. An appropriate amount of Europium labeled Streptavidin was then added to the biotinylated SRC1(2) solution in a tube to give a final concentration of 10 nM. The tube was inverted gently and incubated for 15 minutes at room temperature. Twenty-fold excess biotin from the 10 mM stock solution was added and the tube was inverted gently and incubated for 10 minutes at room temperature.
Biotinylated RORγ-LBD solution was prepared by adding an appropriate amount of biotinylated RORγ-LBD from the stock solution to a buffer containing 10 mM of freshly added DTT from solid to give a final concentration of 40 nM. An appropriate amount of APC labeled Streptavidin was then added to the biotinylated RORγ-LBD solution in a tube to give a final concentration of 20 nM. The tube was inverted gently and incubated for 15 minutes at room temperature. Twenty-fold excess biotin from the 10 mM stock solution was then added and the tube was inverted gently and incubated for 10 minutes at room temperature.
The reaction mixtures were incubated for 5 minutes. […] The plates were incubated for 1 hour and then read on ViewLux in Lance mode for EU/APC.

IL-17F mRNA expression = experiment: Ex-vivo human skin model, IL-17F mRNA expression; format: cell-based; conditions: four different donors, compound 10 μM
Experimental: (§1) Fresh ex vivo human skin from healthy bariatric patients, that underwent abdominoplasty skin removal, was de-fatted and dermatomed at 750 μm. Dermatomed skin was incubated twice for 5-10 minutes at room temperature in PBS containing a antibiotic/antimycotic solution: Fungizone (Invitrogen #15290018), PSG (Fisher #BW17718R) and Gentamicin (Invitrogen #15750060). Skin was treated aseptically from this point on. Individual skin samples were obtained by 10 mm punch biopsy and placed in a 0.4 μm PCF membrane transwell (Millicell #PIHP01250) containing 30 μl of a 64% bovine collagen solution. After a 30 minute incubation at 37° C., which allows the collagen solution time to set, skin samples on transwells were transferred to 6-well plates (1 sample per well) and the lower chamber filled with 1 ml complete media (Cornification Media)+hydrocortisone (final concentration of 0.4 μg/ml) with or without test compounds at 10 μM (day −3) and allowed to rest overnight (16-18 h) at 37° C. Next, media was aspirated from the lower chamber, replaced with 1 ml complete media without hydrocortisone and incubated at 37° C. for 1 h. This constituted a ‘wash’ step. Following the hydrocortisone washout, media was again aspirated from the lower chamber and replaced with 1.0 ml complete media without hydrocortisone with or without GSK compounds at 10 μM (day −2). Cultures were incubated at 37° C. in a humidified chamber and media was refreshed one more day (day-1). The following day (day-0), cultures were stimulated for 24 h with a freshly made Th17 cytokine cocktail (CD3, 1 μg/ml, CD28, 2 μg/ml, IL-1b, 10 ng/ml, IL-6, 5 ng/ml, TGFb, 1 ng/ml, IL-21, 10 ng/ml, anti-IL-4, 1 μg/ml and anti-INFg, 1 μg/ml) with or without test compounds at 10 μM. Upon harvest (day +1), skin samples were minced with a razor blade and transferred to 1.5 ml RNAse-free tubes with 1 ml RNAlater solution until later analysis by RT-PCR (stored at −80 C).
(§2) Total RNA was isolated from about 30-40 mg of tissue using Qiagen's (Cat #74106) Mini RNA Isolation kit. Briefly, tissue was homogenized in the Precellys-24 machine using 300 μL of RLT buffer supplemented with 1% 2-Beta-Mercapto-Ethanol at 6300 rpm for 30 seconds for 6 cycles with a 2-minute ice break. 600 μL of water containing Proteinase K was added to the homogenate and digested at 55 C for 15 minutes. Digested tissue was spun down for 3 minutes at 10,000×g and the supernantant was used for RNA isolation using Qiagen's RNeasy mini columns according to manufacturer's protocol. 100 ng of RNA was used as template in a 20 μL PCR volume using Applied Biosciences RNA-to-CT 1 Step kit (AB Catalog #4392938) as well as the specific TaqMan probe for each gene to be quantified. Life Technologies FAM labeled Probes Catalog Numbers are as follows: ACTb=Hs01060665_g1, IL-17A=Hs00174383_m1, IL-17F=Hs00369400_m1, IL-22=Hs01574154_m1. All probes used (except for ACTb) expand an Exon. Applied Biosciences' Master Mix has a ROX dye internal control. OneStepPlus PCR machine was used for both the RT step and the 40 amplification cycles. RNA levels of gene of interest's relative expression were calculated using the Delta Delta CT formula.
(§3) First delta: Normalized to ACTb gene expression
(§4) Second delta: Normalized to sample 13 (Day 0+DMSO) for the gene of interest.

IL-17A mRNA expression = experiment: Ex-vivo human skin model, IL-17A mRNA expression; format: cell-based; conditions: four different donors, compound 10 μM
Experimental: as §1, §2, §3, §4

IL-22 mRNA expression = experiment: Ex-vivo human skin model, IL-22 mRNA expression; format: cell-based; conditions: four different donors, compound 10 μM
Experimental: as §1, §2, §3, §4

SMILES	IC50 [1] [µM]	further results
Cc1ccc(N(CC(C)C)S(=O)(=O)c2ccc(C(O)CN3CCOCC3)cc2)c(C)c1 (single isomer, unassigned) [Example E122, N-(2,4-dimethylphenyl)-4-(1-hydroxy-2-morpholinoethyl)-N-isobutylbenzenesulfonamide]	< 1	
Cc1ccc(N(CC(C)C)S(=O)(=O)c2ccc(OCC3CCNCC3)cc2)c(C)c1 [Example E8, N-(2,4-dimethylphenyl)-N-isobutyl-4-(piperidin-4-ylmethoxy)benzenesulfonamide, Trifluoroacetic acid salt]	< 1	
Cc1ccc(N(CC(C)C)S(=O)(=O)c2ccc(OCC3(C)COCC(=O)N3)cc2)c(C)c1 (centres unmarked) [Example E11]	< 1	
Cc1ccc(N(CC(C)C)S(=O)(=O)c2ccc(OCC3CCOCC3)c(Cl)c2)c(C)c1 [Example E20]		IC50 [2]: ≤ 0.0158 µM
Cc1ccc(N(CC(C)C)S(=O)(=O)c2ccc(N3CCOCC3)cc2)c(C)c1 [Example E33]	< 1	
Cc1ccc(N(CC(C)C)S(=O)(=O)c2ccc(OC[C@H]3NCCO[C@@H]3C)cc2)c(C)c1 [Example E36]	< 1	
Cc1ccc(N(CC(C)C)S(=O)(=O)c2ccc(OCC3CCC(C)CC3)cc2)c(C)c1 (centres unmarked) [Example E47]	> 100	
Cc1ccc(N(CC(C)C)S(=O)(=O)c2ccc(C(O)CN3CCOCC3)c(Cl)c2)c(C)c1 (centres unmarked) [Example E84]	< 1	
Cc1ccc(N(CC(C)C)S(=O)(=O)c2ccc(C(O)CN3CCOCC3)c(F)c2)c(C)c1 (centres unmarked) [Example E87]	< 1	
Cc1ccc(N(CC(C)C)S(=O)(=O)c2ccc(C(O)CN3CCOCC3)cc2C)c(C)c1 (centres unmarked) [Example E88]	< 1	
Cc1ccc(N(CC(C)C)S(=O)(=O)c2ccc(C(CO)N3CCOCC3)c(C)c2)c(C)c1 (centres unmarked) [Example E89, N-(2,4-dimethylphenyl)-4-(2-hydroxy-1-morpholinoethyl)-N-isobutyl-3-methylbenzenesulfonamide]	< 1	
Cc1ccc(N(CC(C)C)S(=O)(=O)c2ccc(C(O)CN3CCOCC3)c(C)c2)c(C)c1 (centres unmarked) [Example E90, N-(2,4-dimethylphenyl)-4-(1-hydroxy-2-morpholinoethyl)-N-isobutyl-3-methylbenzenesulfonamide]	< 1	
CCc1ccc(N(CC(C)C)S(=O)(=O)c2ccc(C(O)CN3CCOCC3)cc2)cc1 (centres unmarked) [Example E113, N-(4-ethylphenyl)-4-(1-hydroxy-2-morpholinoethyl)-N-isobutylbenzenesulfonamide]	< 1	
Cc1ccc(N(CC(C)C)S(=O)(=O)c2ccc(C(O)CN3CCOCC3)cc2)c(C)c1 (centres unmarked) [Example E120, N-(2,4-dimethylphenyl)-4-(1-hydroxy-2-morpholinoethyl-N-isobutylbenzenesulfonamide hydrochloride]	< 1	
CCc1ccc(N(CC(C)C)S(=O)(=O)c2ccc(OCC3CCOCC3)c(CO)c2)cc1 [Example E124, N-(4-ethylphenyl)-3-(hydroxymethyl)-N-isobutyl-4-((tetrahydro-2H-pyran-4-yl)methoxy)benzenesulfonamide]		gene transcription of il17f (result in words) (IL-17F mRNA expression): inhibited; gene transcription of il17a (result in words) (IL-17A mRNA expression): inhibited; gene transcription of il22 (result in words) (IL-22 mRNA expression): inhibited
